Measurements as given in ChEMBL document CHEMBL5303573, “Mapping human microbiome drug metabolism by gut bacteria and their genes” (Nature, 2019).

assay: The drug is tested on Clostridium scindens strain: ATCC35704 for biotransformation. The drug concentrations were measured before and after a 12-h incubation by liquid-chromatography-coupled mass spectrometry (LC–MS); conditions: 2 µM

SMILES | Bacterial Biotransformation
CN(C)CCc1c[nH]c2ccc(Cn3cncn3)cc12.O=C(O)c1ccccc1 [RIZATRIPTAN BENZOATE] | Compound NOT metabolized
N#Cc1ccc2[nH]cc(CCCCN3CCN(c4ccc5oc(C(N)=O)cc5c4)CC3)c2c1 [VILAZODONE] | Compound NOT metabolized
CC(C)(C)NC[C@H](O)COc1nsnc1N1CCOCC1.O=C(O)/C=C\C(=O)O [TIMOLOL MALEATE] | Compound NOT metabolized

conditions: bacteroides thetaiotaomicron, 12 h, 2 µM
Description: The drug is tested on Bacteroides thetaiotaomicron strain: 3731 for biotransformation. The drug concentrations were measured before and after a 12-h incubation by liquid-chromatography-coupled mass spectrometry (LC–MS)

SMILES | Bacterial Biotransformation
CN(C)CCc1c[nH]c2ccc(Cn3cncn3)cc12.O=C(O)c1ccccc1 [RIZATRIPTAN BENZOATE] | Compound NOT metabolized
N#Cc1ccc2[nH]cc(CCCCN3CCN(c4ccc5oc(C(N)=O)cc5c4)CC3)c2c1 [VILAZODONE] | Compound metabolized
CC(C)(C)NC[C@H](O)COc1nsnc1N1CCOCC1.O=C(O)/C=C\C(=O)O [TIMOLOL MALEATE] | Compound NOT metabolized

assay: The drug is tested on Bifidobacterium breve strain: DSM20213 for biotransformation. The drug concentrations were measured before and after a 12-h incubation by liquid-chromatography-coupled mass spectrometry (LC–MS); conditions: 2 µM

SMILES | Bacterial Biotransformation
CN(C)CCc1c[nH]c2ccc(Cn3cncn3)cc12.O=C(O)c1ccccc1 [RIZATRIPTAN BENZOATE] | Compound NOT metabolized
N#Cc1ccc2[nH]cc(CCCCN3CCN(c4ccc5oc(C(N)=O)cc5c4)CC3)c2c1 [VILAZODONE] | Compound NOT metabolized
CC(C)(C)NC[C@H](O)COc1nsnc1N1CCOCC1.O=C(O)/C=C\C(=O)O [TIMOLOL MALEATE] | Compound NOT metabolized

assay: The drug is tested on Bacteroides caccae strain: ATCC43185 for biotransformation. The drug concentrations were measured before and after a 12-h incubation by liquid-chromatography-coupled mass spectrometry (LC–MS); conditions: 2 µM

SMILES | Bacterial Biotransformation
CN(C)CCc1c[nH]c2ccc(Cn3cncn3)cc12.O=C(O)c1ccccc1 [RIZATRIPTAN BENZOATE] | Compound NOT metabolized
N#Cc1ccc2[nH]cc(CCCCN3CCN(c4ccc5oc(C(N)=O)cc5c4)CC3)c2c1 [VILAZODONE] | Compound metabolized
CC(C)(C)NC[C@H](O)COc1nsnc1N1CCOCC1.O=C(O)/C=C\C(=O)O [TIMOLOL MALEATE] | Compound NOT metabolized

assay: The drug is tested on Clostridium sp. strain: fecal isolate for biotransformation. The drug concentrations were measured before and after a 12-h incubation by liquid-chromatography-coupled mass spectrometry (LC–MS); conditions: 2 µM

SMILES | Bacterial Biotransformation
N#Cc1ccc2[nH]cc(CCCCN3CCN(c4ccc5oc(C(N)=O)cc5c4)CC3)c2c1 [VILAZODONE] | Compound NOT metabolized
CC(C)(C)NC[C@H](O)COc1nsnc1N1CCOCC1.O=C(O)/C=C\C(=O)O [TIMOLOL MALEATE] | Compound NOT metabolized

assay: The drug is tested on Bacteroides cellulosilyticus strain: DSM14838 for biotransformation. The drug concentrations were measured before and after a 12-h incubation by liquid-chromatography-coupled mass spectrometry (LC–MS); conditions: 2 µM

SMILES | Bacterial Biotransformation
CN(C)CCc1c[nH]c2ccc(Cn3cncn3)cc12.O=C(O)c1ccccc1 [RIZATRIPTAN BENZOATE] | Compound NOT metabolized
N#Cc1ccc2[nH]cc(CCCCN3CCN(c4ccc5oc(C(N)=O)cc5c4)CC3)c2c1 [VILAZODONE] | Compound metabolized
CC(C)(C)NC[C@H](O)COc1nsnc1N1CCOCC1.O=C(O)/C=C\C(=O)O [TIMOLOL MALEATE] | Compound NOT metabolized

conditions: bacteroides fragilis, 12 h, 2 µM
Description: The drug is tested on Bacteroides fragilis strain: DS-208 for biotransformation. The drug concentrations were measured before and after a 12-h incubation by liquid-chromatography-coupled mass spectrometry (LC–MS)

SMILES | Bacterial Biotransformation
N#Cc1ccc2[nH]cc(CCCCN3CCN(c4ccc5oc(C(N)=O)cc5c4)CC3)c2c1 [VILAZODONE] | Compound metabolized
CC(C)(C)NC[C@H](O)COc1nsnc1N1CCOCC1.O=C(O)/C=C\C(=O)O [TIMOLOL MALEATE] | Compound NOT metabolized

assay: The drug is tested on Clostridium symbiosum strain: ATCC14940 for biotransformation. The drug concentrations were measured before and after a 12-h incubation by liquid-chromatography-coupled mass spectrometry (LC–MS); conditions: 2 µM

SMILES | Bacterial Biotransformation
CN(C)CCc1c[nH]c2ccc(Cn3cncn3)cc12.O=C(O)c1ccccc1 [RIZATRIPTAN BENZOATE] | Compound NOT metabolized
N#Cc1ccc2[nH]cc(CCCCN3CCN(c4ccc5oc(C(N)=O)cc5c4)CC3)c2c1 [VILAZODONE] | Compound NOT metabolized
CC(C)(C)NC[C@H](O)COc1nsnc1N1CCOCC1.O=C(O)/C=C\C(=O)O [TIMOLOL MALEATE] | Compound NOT metabolized

assay: The drug is tested on Enterobacter cancerogenus strain: ATCC35316 for biotransformation. The drug concentrations were measured before and after a 12-h incubation by liquid-chromatography-coupled mass spectrometry (LC–MS); conditions: 2 µM

SMILES | Bacterial Biotransformation
CN(C)CCc1c[nH]c2ccc(Cn3cncn3)cc12.O=C(O)c1ccccc1 [RIZATRIPTAN BENZOATE] | Compound NOT metabolized
N#Cc1ccc2[nH]cc(CCCCN3CCN(c4ccc5oc(C(N)=O)cc5c4)CC3)c2c1 [VILAZODONE] | Compound NOT metabolized
CC(C)(C)NC[C@H](O)COc1nsnc1N1CCOCC1.O=C(O)/C=C\C(=O)O [TIMOLOL MALEATE] | Compound NOT metabolized

conditions: parabacteroides distasonis, 12 h, 2 µM
Description: The drug is tested on Parabacteroides distasonis strain: ATCC8503 for biotransformation. The drug concentrations were measured before and after a 12-h incubation by liquid-chromatography-coupled mass spectrometry (LC–MS)

SMILES | Bacterial Biotransformation
N#Cc1ccc2[nH]cc(CCCCN3CCN(c4ccc5oc(C(N)=O)cc5c4)CC3)c2c1 [VILAZODONE] | Compound metabolized
CC(C)(C)NC[C@H](O)COc1nsnc1N1CCOCC1.O=C(O)/C=C\C(=O)O [TIMOLOL MALEATE] | Compound NOT metabolized

conditions: bacteroides thetaiotaomicron, 12 h, 2 µM; remark: another data set of the same source
Description: The drug is tested on Bacteroides thetaiotaomicron strain: VPI-5482 for biotransformation. The drug concentrations were measured before and after a 12-h incubation by liquid-chromatography-coupled mass spectrometry (LC–MS)

SMILES | Bacterial Biotransformation
N#Cc1ccc2[nH]cc(CCCCN3CCN(c4ccc5oc(C(N)=O)cc5c4)CC3)c2c1 [VILAZODONE] | Compound metabolized
CC(C)(C)NC[C@H](O)COc1nsnc1N1CCOCC1.O=C(O)/C=C\C(=O)O [TIMOLOL MALEATE] | Compound NOT metabolized

assay: The drug is tested on Eubacterium rectale strain: ATCC33656 for biotransformation. The drug concentrations were measured before and after a 12-h incubation by liquid-chromatography-coupled mass spectrometry (LC–MS); conditions: agathobacter rectalis, 2 µM

SMILES | Bacterial Biotransformation
CC(C)(C)NC[C@H](O)COc1nsnc1N1CCOCC1.O=C(O)/C=C\C(=O)O [TIMOLOL MALEATE] | Compound NOT metabolized

assay: The drug is tested on Subdoligranulum variabile strain: DSM15176 for biotransformation. The drug concentrations were measured before and after a 12-h incubation by liquid-chromatography-coupled mass spectrometry (LC–MS); conditions: 2 µM

SMILES | Bacterial Biotransformation
CN(C)CCc1c[nH]c2ccc(Cn3cncn3)cc12.O=C(O)c1ccccc1 [RIZATRIPTAN BENZOATE] | Compound NOT metabolized
N#Cc1ccc2[nH]cc(CCCCN3CCN(c4ccc5oc(C(N)=O)cc5c4)CC3)c2c1 [VILAZODONE] | Compound NOT metabolized
CC(C)(C)NC[C@H](O)COc1nsnc1N1CCOCC1.O=C(O)/C=C\C(=O)O [TIMOLOL MALEATE] | Compound NOT metabolized

assay: The drug is tested on Bacteroides fragilis strain: ATCC43859 for biotransformation. The drug concentrations were measured before and after a 12-h incubation by liquid-chromatography-coupled mass spectrometry (LC–MS); conditions: 2 µM

SMILES | Bacterial Biotransformation
CN(C)CCc1c[nH]c2ccc(Cn3cncn3)cc12.O=C(O)c1ccccc1 [RIZATRIPTAN BENZOATE] | Compound NOT metabolized
N#Cc1ccc2[nH]cc(CCCCN3CCN(c4ccc5oc(C(N)=O)cc5c4)CC3)c2c1 [VILAZODONE] | Compound metabolized

conditions: bacteroides fragilis, 12 h, 2 µM; remark: another data set of the same source
Description: The drug is tested on Bacteroides fragilis strain: NCTC 9343 for biotransformation. The drug concentrations were measured before and after a 12-h incubation by liquid-chromatography-coupled mass spectrometry (LC–MS)

SMILES | Bacterial Biotransformation
N#Cc1ccc2[nH]cc(CCCCN3CCN(c4ccc5oc(C(N)=O)cc5c4)CC3)c2c1 [VILAZODONE] | Compound metabolized
CC(C)(C)NC[C@H](O)COc1nsnc1N1CCOCC1.O=C(O)/C=C\C(=O)O [TIMOLOL MALEATE] | Compound NOT metabolized

assay: The drug is tested on Blautia luti strain: DSM14534 for biotransformation. The drug concentrations were measured before and after a 12-h incubation by liquid-chromatography-coupled mass spectrometry (LC–MS); type: ADME; parameters: dose 2 uM, timepoint 0 vs 12 hours; conditions: 2 µM

SMILES | Bacterial Biotransformation
CN(C)CCc1c[nH]c2ccc(Cn3cncn3)cc12.O=C(O)c1ccccc1 [RIZATRIPTAN BENZOATE] | Compound NOT metabolized
N#Cc1ccc2[nH]cc(CCCCN3CCN(c4ccc5oc(C(N)=O)cc5c4)CC3)c2c1 [VILAZODONE] | Compound NOT metabolized
CC(C)(C)NC[C@H](O)COc1nsnc1N1CCOCC1.O=C(O)/C=C\C(=O)O [TIMOLOL MALEATE] | Compound NOT metabolized

assay: The drug is tested on Bacteroides ovatus strain: ATCC8483 for biotransformation. The drug concentrations were measured before and after a 12-h incubation by liquid-chromatography-coupled mass spectrometry (LC–MS); conditions: 2 µM

SMILES | Bacterial Biotransformation
N#Cc1ccc2[nH]cc(CCCCN3CCN(c4ccc5oc(C(N)=O)cc5c4)CC3)c2c1 [VILAZODONE] | Compound metabolized
CC(C)(C)NC[C@H](O)COc1nsnc1N1CCOCC1.O=C(O)/C=C\C(=O)O [TIMOLOL MALEATE] | Compound NOT metabolized

assay: The drug is tested on Eubacterium hallii strain: DSM3353 for biotransformation. The drug concentrations were measured before and after a 12-h incubation by liquid-chromatography-coupled mass spectrometry (LC–MS); conditions: anaerobutyricum hallii, 2 µM

SMILES | Bacterial Biotransformation
CN(C)CCc1c[nH]c2ccc(Cn3cncn3)cc12.O=C(O)c1ccccc1 [RIZATRIPTAN BENZOATE] | Compound NOT metabolized
N#Cc1ccc2[nH]cc(CCCCN3CCN(c4ccc5oc(C(N)=O)cc5c4)CC3)c2c1 [VILAZODONE] | Compound NOT metabolized
CC(C)(C)NC[C@H](O)COc1nsnc1N1CCOCC1.O=C(O)/C=C\C(=O)O [TIMOLOL MALEATE] | Compound NOT metabolized

assay: The drug is tested on Bacteroides finegoldii strain: DSM17565 for biotransformation. The drug concentrations were measured before and after a 12-h incubation by liquid-chromatography-coupled mass spectrometry (LC–MS); conditions: 2 µM

SMILES | Bacterial Biotransformation
CN(C)CCc1c[nH]c2ccc(Cn3cncn3)cc12.O=C(O)c1ccccc1 [RIZATRIPTAN BENZOATE] | Compound NOT metabolized
CC(C)(C)NC[C@H](O)COc1nsnc1N1CCOCC1.O=C(O)/C=C\C(=O)O [TIMOLOL MALEATE] | Compound NOT metabolized
